Toxic doses and inconclusive results are not listed. No stated cut-off is given here; in the data, active means T/C of 150% or more; inactive means T/C below 125%.
System: L1210 leukemia ip in BDF1 mice, survival T/C
Assay: NCI In Vivo Anticancer Drug Screen. Data for tumor model L1210 Leukemia (intraperitoneal) in B6D2F1 (BDF1) mice
Details: endpoint: mean survival time, higher = longer survival
Summary of the method: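 Ratio derived from survival: compound-dosed mice over vehicle-dosed mice, all bearing a transplantable tumor.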

[1] = dose: 50.0 mg/kg/injection, schedule: Q01DX009 (ip), vehicle: saline with Tween-80
[2] = dose: 100.0 mg/kg/injection, schedule: Q01DX009 (ip), vehicle: saline with Tween-80
[3] = dose: 200.0 mg/kg/injection, schedule: Q01DX009 (ip), vehicle: saline with Tween-80
[4] = dose: 100.0 mg/kg/injection, schedule: Q01DX001 (ip), vehicle: Klucel (hydroxypropylcellulose) (HPC)
[5] = dose: 200.0 mg/kg/injection, schedule: Q01DX001 (ip), vehicle: Klucel (hydroxypropylcellulose) (HPC)
[6] = dose: 100.0 mg/kg/injection, schedule: Q01DX009 (ip), vehicle: Klucel (hydroxypropylcellulose) (HPC)
[7] = dose: 200.0 mg/kg/injection, schedule: Q01DX009 (ip), vehicle: Klucel (hydroxypropylcellulose) (HPC)
[8] = dose: 75.0 mg/kg/injection, schedule: Q01DX001 (ip), vehicle: saline
[9] = dose: 100.0 mg/kg/injection, schedule: Q04DX003 (ip), vehicle: saline with Tween-80
[10] = dose: 200.0 mg/kg/injection, schedule: Q04DX003 (ip), vehicle: saline with Tween-80
[11] = dose: 400.0 mg/kg/injection, schedule: Q01DX009 (ip), vehicle: saline with Tween-80
[12] = dose: 400.0 mg/kg/injection, schedule: Q04DX003 (ip), vehicle: saline with Tween-80
[13] = dose: 100.0 mg/kg/injection, schedule: Q01DX001 (ip), vehicle: saline
[14] = dose: 200.0 mg/kg/injection, schedule: Q01DX001 (ip), vehicle: saline
[15] = dose: 50.0 mg/kg/injection, schedule: Q01DX001 (ip), vehicle: carboxymethylcellulose (CMC)
[16] = dose: 100.0 mg/kg/injection, schedule: Q01DX001 (ip), vehicle: carboxymethylcellulose (CMC)
[17] = dose: 200.0 mg/kg/injection, schedule: Q01DX001 (ip), vehicle: carboxymethylcellulose (CMC)
[18] = dose: 400.0 mg/kg/injection, schedule: Q01DX001 (ip), vehicle: carboxymethylcellulose (CMC)

Measured: T/C

NOCc1ccsn1
inactive: dose: 100.0 mg/kg/injection, schedule: Q01DX001 (ip), vehicle: other 105 % of control | dose: 100.0 mg/kg/injection, schedule: Q01DX009 (ip), vehicle: sodium bicarbonate 96 % of control | dose: 100.0 mg/kg/injection, schedule: Q04DX003 (ip), vehicle: other 102 % of control | dose: 200.0 mg/kg/injection, schedule: Q01DX001 (ip), vehicle: other 111 % of control | dose: 200.0 mg/kg/injection, schedule: Q01DX009 (ip), vehicle: sodium bicarbonate 98 % of control | dose: 200.0 mg/kg/injection, schedule: Q04DX003 (ip), vehicle: other 95 % of control | dose: 400.0 mg/kg/injection, schedule: Q01DX001 (ip), vehicle: other 94 % of control

O=C1OCC/C1=C/OCCCCCCO/C=C1/CCOC1=O
inactive: dose: 100.0 mg/kg/injection, schedule: Q04DX002 (ip), vehicle: Klucel (hydroxypropylcellulose) (HPC) 102 % of control | dose: 200.0 mg/kg/injection, schedule: Q04DX002 (ip), vehicle: Klucel (hydroxypropylcellulose) (HPC) 102 % of control | dose: 400.0 mg/kg/injection, schedule: Q04DX002 (ip), vehicle: Klucel (hydroxypropylcellulose) (HPC) 91 % of control

O=C(O)/C=C/C(=O)Nc1ccc(N=Nc2ccccc2)cc1
inactive: [1] 101 % of control | [2] 92 % of control | [3] 89 % of control

CCCCCCCCCCCCCCSCCCCCCSCCCCCCCCCCCCCC
inactive: [4] 98 % of control | [5] 93 % of control | dose: 400.0 mg/kg/injection, schedule: Q01DX001 (ip), vehicle: Klucel (hydroxypropylcellulose) (HPC) 94 % of control

C[N+]1(CCCl)CCOCC1
inactive: dose: 20.0 mg/kg/injection, schedule: Q01DX009 (ip), vehicle: Klucel (hydroxypropylcellulose) (HPC) 97 % of control | dose: 40.0 mg/kg/injection, schedule: Q01DX009 (ip), vehicle: Klucel (hydroxypropylcellulose) (HPC) 102 % of control

c1ccc2c(c1)C(=C1c3ccccc3-c3ccccc31)c1ccccc1-2
inactive: [4] 104 % of control | [5] 96 % of control

CCCCCCCCCCCCCCCCNS(=O)(=O)c1ccc(NN)cc1
inactive: dose: 50.0 mg/kg/injection, schedule: Q01DX009 (ip), vehicle: Klucel (hydroxypropylcellulose) (HPC) 98 % of control | [6] 99 % of control | dose: 100.0 mg/kg/injection, schedule: Q04DX003 (ip), vehicle: Klucel (hydroxypropylcellulose) (HPC) 97 % of control | [7] 91 % of control | dose: 200.0 mg/kg/injection, schedule: Q04DX003 (ip), vehicle: Klucel (hydroxypropylcellulose) (HPC) 95 % of control

Cc1ccc(S(=O)(=O)NNC(=O)c2ccc[nH]2)cc1
inactive: [8] 101 % of control | dose: 150.0 mg/kg/injection, schedule: Q01DX001 (ip), vehicle: saline 101 % of control | dose: 300.0 mg/kg/injection, schedule: Q01DX001 (ip), vehicle: saline 96 % of control

O=C(O)C1CC1Oc1ccccc1 (stereo not given)
inactive: [2] 96 % of control | [9] 110 % of control | [3] 92 % of control | [10] 108 % of control | [11] 87 % of control | [12] 106 % of control

N#CS/C=C\C(N)=O
inactive: dose: 3.0 mg/kg/injection, schedule: Q01DX009 (ip), vehicle: Klucel (hydroxypropylcellulose) (HPC) 94 % of control | dose: 6.0 mg/kg/injection, schedule: Q01DX009 (ip), vehicle: Klucel (hydroxypropylcellulose) (HPC) 108 % of control | dose: 12.0 mg/kg/injection, schedule: Q01DX009 (ip), vehicle: Klucel (hydroxypropylcellulose) (HPC) 106 % of control | dose: 12.5 mg/kg/injection, schedule: Q01DX009 (ip), vehicle: Klucel (hydroxypropylcellulose) (HPC) 104 % of control | dose: 12.5 mg/kg/injection, schedule: Q04DX003 (ip), vehicle: Klucel (hydroxypropylcellulose) (HPC) 90 % of control

O=C(O)/C=C/C(=O)NNC(=O)/C=C/C(=O)O
inactive: [9] 98 % of control | [10] 98 % of control

O=C(O)c1cc2ccccc2cn1
inactive: dose: 100.0 mg/kg/injection, schedule: Q04DX002 (ip), vehicle: saline 102 % of control | dose: 200.0 mg/kg/injection, schedule: Q04DX002 (ip), vehicle: saline 93 % of control

CCCCCCCCCCCC[N+](CC)(CC)CC(=O)O
inactive: dose: 12.5 mg/kg/injection, schedule: Q01DX009 (ip), vehicle: saline 88 % of control | dose: 25.0 mg/kg/injection, schedule: Q01DX009 (ip), vehicle: saline 97 % of control | dose: 50.0 mg/kg/injection, schedule: Q01DX009 (ip), vehicle: saline 104 % of control | dose: 50.0 mg/kg/injection, schedule: Q04DX003 (ip), vehicle: saline 111 % of control | [13] 93 % of control | [14] 98 % of control

N#Cc1ccc(CCCCCCc2ccc(C#N)cc2)cc1
inactive: dose: 25.0 mg/kg/injection, schedule: Q01DX009 (ip), vehicle: saline with Tween-80 95 % of control | [15] 101 % of control | [1] 95 % of control | [16] 106 % of control | [2] 94 % of control | [17] 110 % of control | [18] 120 % of control

CCCS(=O)[O-].CCCS(=O)[O-].[Zn+2]
inactive: [8] 104 % of control

CCc1occ(C(=O)OC)c1C(=O)OC
inactive: [2] 96 % of control | [9] 95 % of control | [3] 96 % of control | [10] 94 % of control | [11] 100 % of control | [12] 104 % of control

CNC(=O)NC1CCC(C)CC1 (stereo not given)
inactive: [13] 95 % of control | [14] 95 % of control | dose: 400.0 mg/kg/injection, schedule: Q01DX001 (ip), vehicle: saline 97 % of control

COCCCNP(=O)(OC(C)C)OC(C)C
inactive: dose: 100.0 mg/kg/injection, schedule: Q01DX001 (ip), vehicle: acetone 109 % of control | dose: 100.0 mg/kg/injection, schedule: Q04DX003 (ip), vehicle: acetone 97 % of control | dose: 200.0 mg/kg/injection, schedule: Q01DX001 (ip), vehicle: acetone 98 % of control | dose: 200.0 mg/kg/injection, schedule: Q04DX003 (ip), vehicle: acetone 95 % of control | dose: 400.0 mg/kg/injection, schedule: Q01DX001 (ip), vehicle: acetone 110 % of control | dose: 400.0 mg/kg/injection, schedule: Q04DX003 (ip), vehicle: acetone 95 % of control

CC(=O)O/C=C\c1ccccc1
inactive: [15] 104 % of control | [16] 98 % of control | [17] 107 % of control | [18] 98 % of control

N/C(=N\O)c1cn(C2OC(CO)C(O)C2O)c2nc(Cl)nc(N)c12 (stereo not given)
inactive: dose: 50.0 mg/kg/injection, schedule: Q01DX001 (ip), vehicle: Klucel (hydroxypropylcellulose) (HPC) 109 % of control | [4] 115 % of control

CCCCCCC(CC)NCCO (stereo not given)
inactive: [8] 96 % of control

CC1(C)N=C(N)N=C(N)N1c1cccc(CO)c1
inactive: [13] 96 % of control | [14] 105 % of control

CC(C(=O)c1ccccc1)C(c1ccccc1)N1CCOCC1 (stereo not given)
inactive: [9] 106 % of control | [10] 101 % of control | [12] 100 % of control

COC(=O)c1ccccc1C1=C(O)C(=O)C(c2ccccc2C(=O)OC)=C(O)C1=O
inactive: [6] 97 % of control | [7] 98 % of control

C[C@@H]1CCC([C@@H](C)[C@H]2CC[C@H]3[C@@H]4CC[C@H]5C[C@@H](O)CC[C@]5(C)[C@H]4CC[C@]23C)=NC1
inactive: dose: 1.56 mg/kg/injection, schedule: Q01DX015 (ip), vehicle: saline 94 % of control | dose: 3.13 mg/kg/injection, schedule: Q01DX015 (ip), vehicle: saline 97 % of control | dose: 6.25 mg/kg/injection, schedule: Q01DX015 (ip), vehicle: saline 94 % of control | dose: 12.5 mg/kg/injection, schedule: Q01DX015 (ip), vehicle: saline 94 % of control | dose: 12.5 mg/kg/injection, schedule: Q01DX Z (ip), vehicle: saline 93 % of control | dose: 25.0 mg/kg/injection, schedule: Q01DX Z (ip), vehicle: saline 106 % of control | dose: 50.0 mg/kg/injection, schedule: Q01DX Z (ip), vehicle: saline 93 % of control | dose: 100.0 mg/kg/injection, schedule: Q01DX Z (ip), vehicle: saline 97 % of control | dose: 125.0 mg/kg/injection, schedule: Q01DX001 (ip), vehicle: saline 93 % of control

From PubChem BioAssay AID248 (DTP/NCI, 2004)
